Data: patent publication US12338484B2, “FRET biosensor for detecting and reporting NAD+/NADH ratio changes” (Sartorius BioAnalytical Instruments, Inc., priority 2022, dated 2025)

Test: Performance of initial constructs under dual-excitation FRET signal collection mode
Format: biochemical
Description: Constructs #10 and #14 in Table 3 were used to generate protein libraries. […] This is evidenced by the fact that all clones chosen from the libraries to proceed with have in vitro a substantial increase in signal window, compared to the original template protein (constructs #10 or #14). These increases are also roughly similar fold-wise between the numbers obtained in bacterial lysate screening and in the process of in vitro characterization.

Substance: Rex(A)-cpmEGFP(173/174)-Rex(B)-mKOk [Construct #12]
- Performance under dual-excitation FRET signal collection mode: poor performance
